This is an account of results in patent US20020107269A1, “Benzoxazole LPAAT-B inhibitors and uses thereof” (CELL THERAPEUTICS, INC., priority 2000, published 2002).

The subject of assay [1] is human breast tumor MCF-7 cells. Briefly: Proliferation of MCF-7 cells by CyQUANT analysis. The format is cell-based. As to conditions: MCF-7 cells in microplates, FIG. 5E. The procedure:
To determine whether administration of LPAAT-β inhibitor would have any effect on cell proliferation in tissue culture, proliferation of human breast tumor MCF-7 cells in microplates were measured by CyQUANT analysis using a green-fluorescent nucleic acid stain optimized to produce a linear detection range from 50 to 50,000 cells in 200 μl volume (Molecular Probes, Eugene, Oreg.) in the presence of various concentrations of a LPAAT-β inhibitor.

Assay [2] deals with T1, LPAAT-β (Homo sapiens, UniProt O15120).
T1 construct: the full-length human LPAAT-β cDNA was amplified by PCR; poly-histidine tag (N); made in house; host or cells: Sf9 insect cells (baculovirus, pFastBac HTc); membrane fraction used
T1 sequence (O15120 24-278): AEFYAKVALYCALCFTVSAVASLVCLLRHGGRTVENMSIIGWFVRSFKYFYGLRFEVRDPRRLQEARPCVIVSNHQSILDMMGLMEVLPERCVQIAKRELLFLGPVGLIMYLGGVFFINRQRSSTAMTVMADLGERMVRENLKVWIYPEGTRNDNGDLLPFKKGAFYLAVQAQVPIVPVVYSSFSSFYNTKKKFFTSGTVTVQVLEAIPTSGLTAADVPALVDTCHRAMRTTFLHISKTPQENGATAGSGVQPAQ
The experiment in a line: LPAAT-β colorimetric assay (DTNB detection of released CoA). The format is biochemical. The following applies: Sf9 cell membrane overexpressing LPAAT-β; 18:1-CoA and sn-1-18:1 lysoPA; absorbance at 405 nm; read-out: LPAATβ Colorimetric Assay IC50. The source says:
For the construction of Baculovirus expression vectors, the full-length human LPAAT-β cDNA was amplified by PCR from the DNA template pCE9.LPAAT-β (West et al., DNA Cell Biol. 16:691-701 (1997)) using the primers 5′-TGATATCCGAAGAAGATCTTATGGAGCTGTGGCCGTGTC-3′ (olpb1F) and 5′-CAGGCTCTAG ACTACTGGGC CGGCTGCAC-3′ (olpb1R). The ˜870 bp fragment generated was reamplified by PCR using the primers 5′ CCTACGTCG ACATGGAACAAAAATTGATATCCGAAGAAGATC-3′ (olpb2F) and 5′-CAGGCTCTAG ACTACTGGGC CGGCTGCAC-3′ (olpb1R). The ˜890 bp fragment generated was then cleaved with Sal I and Xba I for insertion into pFastBac™ HTc vector (Life Technologies, Gaithersberg, Md.) between the Sal I and Xba I sites for the generation of the plasmid pFB.LPAAT-β. This plasmid was then transformed into E. coli DH10Bac™ (Life Technologies, Gaithersberg, Md.) for the generation of recombinant Bacmid DNA for transfection into HighFive (Invitrogen, San Diego, Calif.) or SF9 insect cells for the production of recombinant Baculovirus stocks using the protocol described in the Bac-to-Bac® Baculovirus Expression System (Life Technologies, Gaithersberg, Md.), a eukaryotic expression system for generating recombinant baculovirus through site-specific transposition in E. coli. Viral stocks harvested from the transfected cells can then be used to infect fresh insect cells for the subsequent expression of LPAAT-β fusion protein with a poly-histidine tag and a myc-epitope near its N-terminus. The membrane fraction from these Sf9 cells would be the source of LPAAT enzyme.
For the preparation of membranes From Sf9 Cells, all steps are performed on ice or at 4° C. Sf9 cell pellets ([…]) were thawed and resuspended in 1-2 ml of buffer A (20 mM Hepes, pH 7.5, 1 mM DTT, 1 mM EDTA, 20% w/v glycerol, 1 mM Benzamidine, 1 μg/ml soybean trypsin inhibitor (SBTI), 1 μg/ml pepstatin A) w/o DTT but with 1 mM Pefabloc. The cells were lysed by sonication using a Branson Sonifier at output=2, duty cycle=2, 10 pulses each at 10 s. with the tip of small sonicator probe submerged but not touching the walls. DTT was then added to 1 mM from a 1M stock. The samples were centrifuged at 1500 rpm for 5 min. The low speed supernatant was saved and centrifuged (TLA 100.3 rotor, polycarbonate tubes, 2 ml/tube or 1.5 ml/tube minimum) at 100000×g for 1 hr. The high speed pellet was resuspend in Buffer A with a probe sonicator (10 pulses @ output #2 and duty cycle 20%) as a source of LPAAT enzyme.
LPAAT-β catalyzes the transfer of an acyl group from a donor such as acyl-CoA to LPA. The transfer of the acyl group from acyl-CoA to LPA leads to the release of free CoA, which can be reacted with the thiol reagent, 5,5′-dithiobis(2-nitrobenzoic acid) (DTNB). The reaction between DTNB and the free sulfhydryl group from CoA generates a yellow-colored product, 3-carboxylato-4-nitrothiophenolate (CNP), that absorbs at 413 nm. LPAAT-β derived from Sf9 cell membrane overexpressing LPAAT-β were resuspended in HEPES saline buffer (20 mM HEPES pH 7.5, 150 mM NaCl), 1 mg/ml BSA and 72 μl aliquots were distributed into 96-well microtiter plates. 8 μl of compound of interest at 200 μM dissolved in 100% DMSO was added into each well. 20 μl of 1 mM 18:1-CoA and 1 mM sn-1-18:1 lysoPA was then added to each well to initiate the reaction and allowed to run at room temperature for 25 min. 100 μl of 1 mM DTNB in 100% ethanol was then added to each well to quench the reaction and for color development. The absorbance at 405 nm, measured using a spectrophotometer plate reader, is proportional to the activity of LPAAT-β in the sample. This calorimetric assay was used for the high throughput screening of LPAAT inhibitors. […] Compounds that gave a reading of less than 0.06 arbitrary units (indicated by arrow on right margin) were selected for further study.

The IC50 is the point on the concentration scale where inhibition reaches its midpoint.

For the molecule `CCC(=O)Nc1ccc(Cl)c(-c2nc3ccc(C)cc3o2)c1` [N-[4-Chloro-3-(6-methyl-benzooxazol-2-yl)-phenyl]-propionamide], in assay [1], the “concentration effective in blocking the proliferation of MCF-7 cells” value is no less than 20 µM.
For the molecule `C#CCOC(=O)Nc1ccc(Cl)c(-c2nc3cc(Cl)ccc3n2C)c1` [CT-32243, [4-Chloro-3-(5-chloro-1-methyl-1H-benzoimidazol-2-yl)-phenyl]-carbamic Acid Prop-2-ynyl Ester], the IC50 in assay [2] came out at 60 nM.
The same measure, in the same setting: the figure for `CCC(=O)N(C)c1ccc(Cl)c(-c2nc3cc(C)ccc3o2)c1` [CT-32019, N-(4-Chloro-3-(5-methyl-benzooxazol-2-yl)-phenyl)-N-methyl-propionamide] is 12000 nM.
On to `C#CCOC(=O)Nc1ccc(Cl)c(-c2nc3cc(Cl)ccc3s2)c1` [CT-32192, (4-Chloro-3-(5-chloro-benzothiazol-2-yl)-phenyl)-carbamic Acid Prop-2-ynyl ester], for which the IC50 in assay [2] turned out to be 6 nM.
